Assay results published in patent US9012655B2, “Antimicrobial/adjuvant compounds and methods” (Denouamed, Inc., priority 2011, dated 2015).
Converted amounts (≈) assume the structure as drawn.

Legend:
Experiment in all cases: MIC panel of challenge pathogens (CLSI)
Assay type in all cases: cell-based
[1] = tested on: Staphylococcus aureus EUP MRSA004; settings: EUPMRSA004, Staphylococcus aureus EUP MRSA004; for MIC: read-out: 100% inhibition; for MIC50: read-out: MIC50 (50%); for MIC80: read-out: MIC80 (80%)
In short: (§1)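 Broth microdilution per CLSI guidelines. Final inoculum 2-8×10^5 CFU/ml, compounds serially two-fold diluted from 128 mg/L top concentration. Incubated in the dark at 30-37° C for 24-48 h, aerobic or anaerobic as appropriate. MIC read visually as 100% inhibition endpoint; MIC50 and MIC80 also reported.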

[2] = tested on: Staphylococcus aureus AUR131 007035; settings: AUR131007035, Staphylococcus aureus AUR131 007035; for MIC: read-out: 100% inhibition; for MIC50: read-out: MIC50 (50%); for MIC80: read-out: MIC80 (80%)
In short: as §1

[3] = tested on: Enterococcus faecalis ATCC29212; settings: Enterococcus faecalis ATCC29212; for MIC: read-out: 100% inhibition; for MIC50: read-out: MIC50 (50%); for MIC80: read-out: MIC80 (80%)
In short: as §1

[4] = tested on: Enterococcus faecium ATCC700221; settings: Enterococcus faecium ATCC700221; for MIC: read-out: 100% inhibition; for MIC50: read-out: MIC50 (50%); for MIC80: read-out: MIC80 (80%)
In short: as §1

[5] = tested on: Staphylococcus aureus AUR58 7005; settings: AUR587005, Staphylococcus aureus AUR58 7005; for MIC: read-out: 100% inhibition; for MIC50: read-out: MIC50 (50%); for MIC80: read-out: MIC80 (80%)
In short: as §1

[6] = tested on: Staphylococcus aureus AUR59 7005; settings: AUR597005, Staphylococcus aureus AUR59 7005; for MIC: read-out: 100% inhibition; for MIC50: read-out: MIC50 (50%); for MIC80: read-out: MIC80 (80%)
In short: as §1

[7] = tested on: Enterococcus faecalis ATCC51299; settings: Enterococcus faecalis ATCC51299; for MIC: read-out: 100% inhibition; for MIC50: read-out: MIC50 (50%); for MIC80: read-out: MIC80 (80%)
In short: as §1

[8] = tested on: Staphylococcus aureus EUP MRSA002; settings: EUPMRSA002, Staphylococcus aureus EUP MRSA002; for MIC: read-out: 100% inhibition; for MIC50: read-out: MIC50 (50%); for MIC80: read-out: MIC80 (80%)
In short: as §1

[9] = tested on: Staphylococcus epidermidis NRS7; settings: Staphylococcus epidermidis NRS7; for MIC: read-out: 100% inhibition; for MIC50: read-out: MIC50 (50%); for MIC80: read-out: MIC80 (80%)
In short: as §1

[10] = tested on: Staphylococcus aureus ATCC43300; settings: Staphylococcus aureus ATCC43300; for MIC: read-out: 100% inhibition; for MIC50: read-out: MIC50 (50%); for MIC80: read-out: MIC80 (80%)
In short: as §1

[11] = tested on: Staphylococcus aureus AUR60 7005; settings: AUR607005, Staphylococcus aureus AUR60 7005; for MIC: read-out: 100% inhibition; for MIC50: read-out: MIC50 (50%); for MIC80: read-out: MIC80 (80%)
In short: as §1

[12] = tested on: Staphylococcus aureus EUP SAU040; settings: EUPSAU040, Staphylococcus aureus EUP SAU040; for MIC: read-out: 100% inhibition; for MIC50: read-out: MIC50 (50%); for MIC80: read-out: MIC80 (80%)
In short: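 Broth microdilution per CLSI guidelines; final inoculum 2-8×10^5 CFU/ml in the appropriate broth. Compounds serially diluted two-fold from a top assay concentration of 128 mg/L. Plates incubated in the dark at 30-37° C for 24-48 hours, read visually; MIC taken as 100% inhibition endpoint.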

[13] = tested on: Bacillus cereus NCTC6349; settings: Bacillus cereus NCTC6349; for MIC: read-out: 100% inhibition; for MIC50: read-out: MIC50 (50%); for MIC80: read-out: MIC80 (80%)
In short: as §1

[14] = tested on: Staphylococcus aureus NRS383; settings: Staphylococcus aureus NRS383; for MIC: read-out: 100% inhibition; for MIC50: read-out: MIC50 (50%); for MIC80: read-out: MIC80 (80%)
In short: as §1

[15] = tested on: Staphylococcus aureus NRS382; settings: Staphylococcus aureus NRS382; for MIC: read-out: 100% inhibition; for MIC50: read-out: MIC50 (50%); for MIC80: read-out: MIC80 (80%)
In short: as §1

[16] = tested on: Staphylococcus aureus NRS1 (ATCC700699); settings: Staphylococcus aureus NRS1 (ATCC700699); for MIC: read-out: 100% inhibition; for MIC50: read-out: MIC50 (50%); for MIC80: read-out: MIC80 (80%)
In short: as §1

[17] = tested on: Staphylococcus aureus NRS384; settings: Staphylococcus aureus NRS384; for MIC: read-out: 100% inhibition; for MIC50: read-out: MIC50 (50%); for MIC80: read-out: MIC80 (80%)
In short: as §1

[18] = tested on: Staphylococcus aureus NRS2 (ATCC700698); settings: Staphylococcus aureus NRS2 (ATCC700698); for MIC: read-out: 100% inhibition; for MIC50: read-out: MIC50 (50%); for MIC80: read-out: MIC80 (80%)
In short: as §1

[19] = tested on: Staphylococcus epidermidis NRS122; settings: Staphylococcus epidermidis NRS122; for MIC: read-out: 100% inhibition; for MIC50: read-out: MIC50 (50%); for MIC80: read-out: MIC80 (80%)
In short: as §1

Clc1ccc(-c2cc(-c3nnn[nH]3)sc2-c2ccc(Cl)cc2)cc1 [DNM0487, 5-(4,5-Bis(4-chlorophenyl)thiophen-2-yl)-1H-tetrazole]
MIC [1]: 2 µg/mL (≈ 5.36 µM)
MIC50 [1]: 1 µg/mL (≈ 2.68 µM)
MIC80 [1]: 2 µg/mL (≈ 5.36 µM)
MIC [2]: 1 µg/mL (≈ 2.68 µM)
MIC50 [2]: 1 µg/mL (≈ 2.68 µM)
MIC80 [2]: 1 µg/mL (≈ 2.68 µM)
MIC [3]: 2 µg/mL (≈ 5.36 µM)
MIC50 [3]: 2 µg/mL (≈ 5.36 µM)
MIC80 [3]: 2 µg/mL (≈ 5.36 µM)
MIC [4]: 1 µg/mL (≈ 2.68 µM)
MIC50 [4]: 1 µg/mL (≈ 2.68 µM)
MIC80 [4]: 1 µg/mL (≈ 2.68 µM)
MIC [5]: 1 µg/mL (≈ 2.68 µM)
MIC50 [5]: 1 µg/mL (≈ 2.68 µM)
MIC80 [5]: 1 µg/mL (≈ 2.68 µM)
MIC [6]: 1 µg/mL (≈ 2.68 µM)
MIC50 [6]: 1 µg/mL (≈ 2.68 µM)
MIC80 [6]: 1 µg/mL (≈ 2.68 µM)
MIC [7]: 2 µg/mL (≈ 5.36 µM)
MIC50 [7]: 1 µg/mL (≈ 2.68 µM)
MIC80 [7]: 2 µg/mL (≈ 5.36 µM)
MIC [8]: 2 µg/mL (≈ 5.36 µM)
MIC50 [8]: 1 µg/mL (≈ 2.68 µM)
MIC80 [8]: 2 µg/mL (≈ 5.36 µM)
MIC [9]: 1 µg/mL (≈ 2.68 µM)
MIC50 [9]: 0.5 µg/mL (≈ 1.34 µM)
MIC80 [9]: 1 µg/mL (≈ 2.68 µM)
MIC [10]: 1 µg/mL (≈ 2.68 µM)
MIC50 [10]: 1 µg/mL (≈ 2.68 µM)
MIC80 [10]: 1 µg/mL (≈ 2.68 µM)
MIC [11]: 1 µg/mL (≈ 2.68 µM)
MIC50 [11]: 1 µg/mL (≈ 2.68 µM)
MIC80 [11]: 1 µg/mL (≈ 2.68 µM)
MIC [12]: 2 µg/mL (≈ 5.36 µM)
MIC50 [12]: 1 µg/mL (≈ 2.68 µM)
MIC80 [12]: 1 µg/mL (≈ 2.68 µM)
MIC [13]: 0.5 µg/mL (≈ 1.34 µM)
MIC50 [13]: 0.5 µg/mL (≈ 1.34 µM)
MIC80 [13]: 0.5 µg/mL (≈ 1.34 µM)
MIC [14]: 1 µg/mL (≈ 2.68 µM)
MIC50 [14]: 1 µg/mL (≈ 2.68 µM)
MIC80 [14]: 1 µg/mL (≈ 2.68 µM)
MIC [15]: 1 µg/mL (≈ 2.68 µM)
MIC50 [15]: 1 µg/mL (≈ 2.68 µM)
MIC80 [15]: 1 µg/mL (≈ 2.68 µM)
MIC [16]: 0.5 µg/mL (≈ 1.34 µM)
MIC50 [16]: 0.25 µg/mL (≈ 0.67 µM)
MIC80 [16]: 0.5 µg/mL (≈ 1.34 µM)
MIC [17]: 1 µg/mL (≈ 2.68 µM)
MIC50 [17]: 1 µg/mL (≈ 2.68 µM)
MIC80 [17]: 1 µg/mL (≈ 2.68 µM)
MIC [18]: 2 µg/mL (≈ 5.36 µM)
MIC50 [18]: 1 µg/mL (≈ 2.68 µM)
MIC80 [18]: 2 µg/mL (≈ 5.36 µM)
MIC [19]: 4 µg/mL (≈ 10.7 µM)
MIC50 [19]: 4 µg/mL (≈ 10.7 µM)
MIC80 [19]: 4 µg/mL (≈ 10.7 µM)

CC(C)c1cc(Cl)ccc1-c1cc(-c2nnn[nH]2)sc1-c1ccc(Cl)cc1C(C)C [DNM0548, 5-(4,5-Bis(4-chloro-2-iso-propylphenyl)thiophen-2-yl)-1H-tetrazole]
MIC [1]: 0.5 µg/mL (≈ 1.09 µM)
MIC50 [1]: 0.5 µg/mL (≈ 1.09 µM)
MIC80 [1]: 0.5 µg/mL (≈ 1.09 µM)
MIC [2]: 0.5 µg/mL (≈ 1.09 µM)
MIC50 [2]: 0.5 µg/mL (≈ 1.09 µM)
MIC80 [2]: 0.5 µg/mL (≈ 1.09 µM)
MIC [3]: 0.25 µg/mL (≈ 0.547 µM)
MIC50 [3]: 0.25 µg/mL (≈ 0.547 µM)
MIC80 [3]: 0.25 µg/mL (≈ 0.547 µM)
MIC [4]: ≤ 0.25 µg/mL
MIC50 [4]: ≤ 0.25 µg/mL
MIC80 [4]: ≤ 0.25 µg/mL
MIC [5]: 1 µg/mL (≈ 2.19 µM)
MIC50 [5]: 1 µg/mL (≈ 2.19 µM)
MIC80 [5]: 1 µg/mL (≈ 2.19 µM)
MIC [6]: 0.5 µg/mL (≈ 1.09 µM)
MIC50 [6]: 0.5 µg/mL (≈ 1.09 µM)
MIC80 [6]: 0.5 µg/mL (≈ 1.09 µM)
MIC [7]: ≤ 0.25 µg/mL
MIC50 [7]: ≤ 0.25 µg/mL
MIC80 [7]: ≤ 0.25 µg/mL
MIC [8]: 0.5 µg/mL (≈ 1.09 µM)
MIC50 [8]: 0.5 µg/mL (≈ 1.09 µM)
MIC80 [8]: 0.5 µg/mL (≈ 1.09 µM)
MIC [9]: 0.5 µg/mL (≈ 1.09 µM)
MIC50 [9]: 0.5 µg/mL (≈ 1.09 µM)
MIC80 [9]: 0.5 µg/mL (≈ 1.09 µM)
MIC [10]: ≤ 0.25 µg/mL
MIC50 [10]: ≤ 0.25 µg/mL
MIC80 [10]: ≤ 0.25 µg/mL
MIC [11]: 0.5 µg/mL (≈ 1.09 µM)
MIC50 [11]: 0.5 µg/mL (≈ 1.09 µM)
MIC80 [11]: 0.5 µg/mL (≈ 1.09 µM)
MIC [12]: 0.5 µg/mL (≈ 1.09 µM)
MIC50 [12]: 0.5 µg/mL (≈ 1.09 µM)
MIC80 [12]: 0.5 µg/mL (≈ 1.09 µM)
MIC [13]: ≤ 0.25 µg/mL
MIC50 [13]: ≤ 0.25 µg/mL
MIC80 [13]: ≤ 0.25 µg/mL
MIC [14]: ≤ 0.25 µg/mL
MIC50 [14]: ≤ 0.25 µg/mL
MIC80 [14]: ≤ 0.25 µg/mL
MIC [15]: 0.5 µg/mL (≈ 1.09 µM)
MIC50 [15]: 0.5 µg/mL (≈ 1.09 µM)
MIC80 [15]: 0.5 µg/mL (≈ 1.09 µM)
MIC [16]: ≤ 0.25 µg/mL
MIC50 [16]: ≤ 0.25 µg/mL
MIC80 [16]: ≤ 0.25 µg/mL
MIC [17]: ≤ 0.25 µg/mL
MIC50 [17]: ≤ 0.25 µg/mL
MIC80 [17]: ≤ 0.25 µg/mL
MIC [18]: 0.5 µg/mL (≈ 1.09 µM)
MIC50 [18]: 0.5 µg/mL (≈ 1.09 µM)
MIC80 [18]: 0.5 µg/mL (≈ 1.09 µM)
MIC [19]: 1 µg/mL (≈ 2.19 µM)
MIC50 [19]: 1 µg/mL (≈ 2.19 µM)
MIC80 [19]: 1 µg/mL (≈ 2.19 µM)
